# Experiments:
# Type in all cases: cell-based, human
# [1] = system: Akt; experiment: Akt activity (phospho-Akt) by Western blot in CaCo-2 cells
# Procedure: CaCo-2, the carcinoma cell line of human colon cancer, was purchased from American Type Culture Collection (ATCC), and cultured at 37° C. in the presence of 5% CO2 using a DMEM medium containing 10% FCS, 1% NEAA, and 1% P/S (100 units/ml penicillin and 100 μg/ml streptomycin).
# 6×10^5 CaCo-2 cells were inoculated per dish using 6 cm dishes (NUNC), washed twice with phosphate buffered saline (PBS) (-), and then cultured for 24 hours in a serum-free DMEM medium containing 1% NEAA. Subsequently, at a final concentration of 100 μM, homoserine lactone hydrochloride, N-butyryl-L-homoserine lactone, N-(3-oxohexanoyl)-L-homoserine lactone and N-(3-oxododecanoyl)-L-homoserine lactone were each added, and then each solution was allowed to react for 10 minutes. In addition, purified acylated homoserine lactone that was used herein had been dissolved in DMSO in a concentration 400 times higher than the target final concentration, and then subjected to filter sterilization (φ 0.22 μm). DMSO at a final concentration of 0.25% was used as a control. In addition, α-tubulin was used as an internal standard.
# After reaction, the product was washed twice with cold PBS (-), and then frozen at −80° C. The cells were thawed on ice, 200 μl of a lysis buffer (50 mM HEPES, pH7.5, 50 mM NaCl, 1 mM EDTA, 1.5 mM MgCl2, 1% Triton X-100, 10% glycerine, 10 mM sodium pyrophosphate, 1 mM Na3VO4, 100 mM NaF, 1 mM PMSF, 10 μg/ml aprotinin and 10 μg/ml leupeptin) was added, and then the cells were scraped off using a scraper. The cells were allowed to stand on ice for 20 minutes, and then centrifuged at 14,000 rpm at 4° C. for 15 minutes, thereby collecting the supernatant. Concentration of the collected protein was measured, and protein equivalent to 50 μg was subjected to SDS-PAGE. After electrophoresis, the product was blotted on a PVDF membrane. When phospho-Akt was measured, blocking was carried out with 5% skim milk/Tris-buffered saline containing 0.1% Tween 20 (TBS-T), and the anti-phospho-Akt ([…]) antibody and the HRP-labeled anti-rabbit IgG antibody were used as a primary antibody and a secondary antibody, respectively. For α-tubulin used as an internal standard, blocking was carried out with 5% bovine serum albumin (BSA)/TBS-T, and the anti-α-tubulin (Ab-1) and the HRP-labeled anti-mouse IgG antibody were used as a primary antibody and a secondary antibody, respectively. For band detection, Renaissance™ Western Blot Chemiluminescence […] Reagent Plus (NEN) or Western Blotting Luminol Reagent (SANTA CRUZ BIOTECHNOLOGY) was used. […] In addition in the figure that is described below, HSL means homoserine lactone hydrochloride, C4-HSL means N-butyryl-L-homoserine lactone, 3-oxo-C6-HSL means N-(3-oxohexanoyl)-L-homoserine lactone, and 3-oxo-C12-HSL means N-(3-oxododecanoyl)-L-homoserine lactone.
# After cell culture, N-(3-oxododecanoyl)-L-homoserine lactones with final concentrations of 0 μM (0.25% DMSO), 1 μM, 10 μM, 30 μM and 100 μM were each added. Akt activity was analyzed by Western blot in a manner similar to that used in (1), except for carrying out reaction for 10 minutes (FIG. 2).
# After cell culture, N-(3-oxododecanoyl)-L-homoserine lactones with final concentrations of 30 μM and 100 μM were each added. For each case, Akt activity was measured by Western blot in a manner similar to that in (1), except for carrying out stimulation with acylated homoserine lactone in a short time course of 0, 5, 10, 30 and 60 minutes (FIG. 4), and in a long time course of 0, 10 minutes, 60 minutes, 2 hours, 4 hours, 6 hours, 8 hours and 10 hours (FIG. 5). In the case of stimulation at 30 μM, the inhibition of Akt activity peaked at 5 minutes, and lasted until 60 minutes after stimulation, and then returned to the base level within 2 hours. On the other hand, in the case of stimulation at […], the inhibition of Akt activity peaked at 5 minutes and lasted until 6 hours after stimulation. […]
# [2] = system: CaCo-2 cells; experiment: Chromatin condensation and determination of apoptosis by Hoechst33342 staining; conditions: 12 hours of culture
# Procedure: 2×10^4 CaCo-2 cells were inoculated on an 8-well culture slide (Collagen I Cellware BioCoat, Becton Dickinson), washed twice with PBS (-), and then cultured in a serum-free DMEM medium containing 1% NEAA for 24 hours. 3-oxododecanoyl homoserine lactone was added at each concentration (1 to 100 μM). After 12 hours of culture, the cells were fixed by 4% paraformaldehyde-3% sucrose/PBS, chromatin staining was carried out using Hoechst 33342 fluorescent dye, and then the cells were observed under a fluorescence microscope. With a magnification of ×400, 5 visual fields were selected at random. Apoptotic cells and normal cells were counted and the proportion of apoptotic cells was calculated. These steps were denoted as n=1, and conducted 3 times or more.
# [3] = system: CaCo-2 cells; experiment: Evaluation of viability by Trypan blue staining; conditions: 12 hours of culture
# Procedure: 2×10^5 CaCo-2 cells were inoculated in a 3.5 cm dish (NUNC), washed twice with PBS (-), and then cultured in a serum-free DMEM medium containing 1% NEAA for 24 hours. Various agents [N-(3-oxododecanoyl)-L-homoserine lactones with final concentrations between 1 and 100 μM] were added, followed by 12 hours of culture. 0.25% DMSO was used as a control. Subsequently, the supernatant and the cells removed from the dish using trypsin-EDTA (TE) were centrifuged at 800 rpm at room temperature for 5 minutes. The supernatant was removed, and then dilution was carried out with 200 μl of DMEM. 50 μl of the dilution was taken in an Eppen tube, an equivalent volume of Trypan blue stain was added, and then the cell count was measured using a hemacytometer. At this time, the sum of the dead cell count and the viable cell count to be measured was determined to be 200 cells or more.
structure (smiles),measurement,setting,value
CCCCCCCCCC(=O)CC(=O)N[C@H]1CCOC1=O [N-(3-oxododecanoyl)-L-homoserine lactone],"Akt activity, % of that where no stimulation was provided","[1]; 10 μM, 10 minutes",79%
same,"Akt activity, % of that where no stimulation was provided","[1]; 30 μM, 10 minutes",31%
same,"Akt activity, % of that where no stimulation was provided","[1]; 100 μM, 10 minutes",14%
same,level of phosphorylated Akt,"[1]; 100 μM, 10 minutes",significantly decreased
same,concentration at which levels of phosphorylated Akt significantly decreased,[1]; 10 minutes,≥ 10 µM
same,time at which inhibition of Akt activity peaked,[1]; stimulation at 10 μM,5 min
same,inhibition of Akt activity lasted until (after stimulation),[1]; stimulation at 30 μM,60 min
same,time at which inhibition of Akt activity peaked,[1]; stimulation at 30 μM,5 min
same,time for Akt activity to return to the base level,[1]; stimulation at 30 μM,≤ 2 h
same,inhibition of Akt activity lasted until (after stimulation),[1]; stimulation at 100 μM,360 min
same,time at which inhibition of Akt activity peaked,[1]; stimulation at 100 μM,5 min
same,cell morphology by Hoechst 33342 staining,[2]; 1 μM,only normal cells were observed
same,proportion of apoptotic cells to the total cell count,[2]; 10 μM,15%
same,proportion of apoptotic cells to the total cell count,[2]; 30 μM,39%
same,proportion of apoptotic cells to the total cell count,[2]; 100 μM,50%
same,concentration at which apoptotic cells exhibiting chromatin condensation were observed,[2],≥ 10 µM
same,viability,[3]; 1 μM,94%
same,viability,[3]; 10 μM,90%
same,viability,[3]; 30 μM,55%
same,viability,[3]; 100 μM,51%
same,concentration at which viability was significantly decreased,[3],≥ 30 µM

# Source: patent publication US7537906B2, “Apoptosis inducer and method of screening for a substance inhibiting acylated homoserine lactone” (priority 2003, dated 2009)
